We go through eight compounds from ChEMBL document CHEMBL1201862, “PubChem BioAssay data set” (2004).

SMILES strings stand for the structures.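 48-hour exposure; five concentrations; linearly interpolated endpoints. Abbreviation: GI50, concentration required for 50% inhibition of growth.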 Calls of active or inactive are those of the source. No stated cut-off is given here; in the data, active = GI50 up to about 1.1 µM and inactive = higher.

Test systems include MCF7; SK-OV-3; SK-MEL-2; SK-MEL-5; HL-60; SF-268; SNB-75; RPMI-8226; MDA-N; OVCAR-3; MDA-MB-435; DU-145; MDA-MB-231; ACHN; SW-620; U-251; T47D; PC-3; Hs-578T; NCI-H522.
Assay in all cases: DTP human tumour cell line panel, 48 h

As a reminder, the GI50 is the concentration giving 50% growth inhibition. For the compound `COc1ccc2nc3c4c(nccc4c2c1)-c1ncccc1C3=O`, the GI50 is 0.021 µM (active) with MCF7; 0.0586 µM (active) with SK-OV-3; 0.376 µM (active) with SK-MEL-2; 0.0282 µM (active) in the assay with SK-MEL-5; 0.0217 µM (active) in the assay on HL-60; 0.0826 µM (active) in the assay on SF-268. In addition, the GI50 was 0.0787 µM (active) in the assay on SNB-75; 0.0652 µM (active) with RPMI-8226; 0.0631 µM (active) with MDA-N; 0.005 µM (active) with OVCAR-3; 0.0427 µM (active) with MDA-MB-435; 0.00927 µM (active) with DU-145. In addition, the concentration for 50% growth inhibition (GI50) with MDA-MB-231 is 0.494 µM (active); with ACHN, 0.0116 µM (active); in the assay on SW-620 it was 0.0121 µM (active); in the assay with U-251, 0.0319 µM (active); with T47D, 0.703 µM (active); in the assay with PC-3 it was 0.0317 µM (active).
In the case of `COC(=O)C1=C(O)CCCC(C2CCCCC(=O)C2C(=O)OC)=C1` (stereo not drawn), the GI50 is 22.6 µM (inactive) in the assay on MCF7; 76.7 µM (inactive) with SK-OV-3; > 100 µM (inactive) with SK-MEL-2; 62.4 µM (inactive) with SK-MEL-5; 28.7 µM (inactive) in the assay with SNB-75; 56.1 µM (inactive) in the assay on RPMI-8226. Moreover, the GI50 in the assay with MDA-N is > 100 µM (inactive); with OVCAR-3 it was > 100 µM (inactive); in the assay with MDA-MB-435, > 100 µM (inactive); in the assay on DU-145 it was 29.9 µM (inactive); in the assay on MDA-MB-231, 46.5 µM (inactive); in the assay on ACHN, 37.2 µM (inactive). Also, the GI50 in the assay on SW-620 was 81.8 µM (inactive); with U-251, 29 µM (inactive); with T47D, 39.4 µM (inactive); with PC-3, 63.4 µM (inactive).
For `Cc1ccc(-c2ccc(Nc3c4ccccc4nc4ccccc34)cc2)cn1`, the GI50 was 2.26 µM (inactive) with MCF7; 1.87 µM (inactive) in the assay on SK-MEL-2; 4.41 µM (inactive) in the assay on SK-MEL-5; 8.75 µM (inactive) in the assay on SF-268; 1.92 µM (inactive) with RPMI-8226; 6.07 µM (inactive) with MDA-N. The GI50 in the assay with OVCAR-3 was 2.63 µM (inactive); with MDA-MB-435 it was 4.43 µM (inactive); with Hs-578T, 5 µM (inactive); in the assay on DU-145, 3.77 µM (inactive); in the assay with ACHN, 2.32 µM (inactive); in the assay with SW-620, 4.01 µM (inactive). The GI50 in the assay on T47D was 2.17 µM (inactive); with NCI-H522 it was 2.83 µM (inactive); in the assay with PC-3 it was 4.97 µM (inactive).
Turning to `c1ccc2c(c1)c1c(n2CCOCCN2CCOCC2)CCCC1`, the GI50 in the assay with MCF7 was 38.8 µM (inactive); in the assay on SK-OV-3, 55.2 µM (inactive); in the assay on SK-MEL-2 it was 24.2 µM (inactive); in the assay on SK-MEL-5 it was 18.2 µM (inactive); in the assay with HL-60, 20 µM (inactive); in the assay on SF-268 it was 20.7 µM (inactive). Further, the GI50 with SNB-75 was 2.36 µM (inactive); in the assay with RPMI-8226 it was 21 µM (inactive); with MDA-N, 37.8 µM (inactive); with OVCAR-3, 26.9 µM (inactive); in the assay on Hs-578T, 57 µM (inactive); in the assay on DU-145 it was > 100 µM (inactive). The GI50 with MDA-MB-231 was 17.3 µM (inactive); with ACHN it was 30.8 µM (inactive); with SW-620, 34.1 µM (inactive); in the assay on U-251 it was 23.6 µM (inactive); with T47D it was 32.2 µM (inactive); with PC-3, 24.7 µM (inactive).
As for `COC(=O)CC1(O)C(C=C(C)C)C(C(=O)OC)C(=O)C(C(=O)OC)C1C(=O)OC` (stereo not drawn), the GI50 with MCF7, in the assay with SK-OV-3, with SK-MEL-2, in the assay with SK-MEL-5, with HL-60 and with SF-268 was > 100 µM (inactive) throughout. Also, the GI50 in the assay with RPMI-8226, in the assay with MDA-N, in the assay on OVCAR-3, in the assay with MDA-MB-435, in the assay with Hs-578T and in the assay with DU-145 was > 100 µM (inactive) throughout. The GI50 in the assay with MDA-MB-231, in the assay with ACHN, with SW-620, in the assay on U-251, in the assay on NCI-H522 and in the assay with PC-3 was > 100 µM (inactive) each time.
For the compound `NCCCN(CCCN(C(=O)Nc1ccccc1)c1ccccc1)C(=O)Nc1ccccc1`, the GI50 is 35.1 µM (inactive) in the assay on MCF7; 45.6 µM (inactive) in the assay with SK-OV-3; 21.9 µM (inactive) with SK-MEL-2; 18.5 µM (inactive) in the assay on SK-MEL-5; 28.1 µM (inactive) with HL-60; 32.6 µM (inactive) in the assay on SF-268. In addition, the GI50 in the assay on SNB-75 is 23.2 µM (inactive); with RPMI-8226 it was 27.7 µM (inactive); with MDA-N, 40.5 µM (inactive); in the assay on Hs-578T it was 32.7 µM (inactive); in the assay on DU-145 it was 36.8 µM (inactive); in the assay on MDA-MB-231, 59.6 µM (inactive). The GI50 is 55.7 µM (inactive) in the assay with ACHN; 21.3 µM (inactive) in the assay on SW-620; 36.6 µM (inactive) in the assay on U-251; 28.2 µM (inactive) with T47D; 20.2 µM (inactive) in the assay with NCI-H522; 33.7 µM (inactive) in the assay with PC-3.
Regarding `CC1(C)OC2OC(C(COS(=O)(=O)C(F)(F)F)N=[N+]=[N-])C(OC(=O)c3ccccc3)C2O1` (stereo not drawn), the GI50 with MCF7, in the assay with SK-OV-3, with SK-MEL-2, in the assay on SK-MEL-5, in the assay with HL-60 and with SF-268 was > 100 µM (inactive) throughout. The GI50 is 53.1 µM (inactive) with SNB-75; > 100 µM (inactive) with MDA-N; > 100 µM (inactive) in the assay on OVCAR-3; > 100 µM (inactive) in the assay with MDA-MB-435; > 100 µM (inactive) in the assay on Hs-578T; > 100 µM (inactive) with DU-145. Moreover, the GI50 in the assay with MDA-MB-231, in the assay on ACHN, in the assay with SW-620, in the assay on U-251 and in the assay with PC-3 was > 100 µM (inactive) in each case.
As to `Cc1cc(-c2nc3c(F)cccc3s2)ccc1N`, the GI50 with SK-OV-3 is > 100 µM (inactive); with SK-MEL-2, > 100 µM (inactive); in the assay on SK-MEL-5 it was 62.2 µM (inactive); in the assay with HL-60, 43.8 µM (inactive); in the assay with SF-268 it was 39.9 µM (inactive); in the assay with SNB-75 it was 52.1 µM (inactive). For the same compound, the GI50 in the assay on RPMI-8226 is 26.9 µM (inactive); in the assay with MDA-N it was 70.1 µM (inactive); in the assay with OVCAR-3 it was > 100 µM (inactive); in the assay on MDA-MB-435, 57.3 µM (inactive); in the assay with Hs-578T, 98.6 µM (inactive); in the assay on DU-145, 52.4 µM (inactive). The GI50 is > 100 µM (inactive) in the assay with MDA-MB-231; 30 µM (inactive) in the assay on ACHN; > 100 µM (inactive) in the assay with SW-620; 69.2 µM (inactive) with U-251; 11.3 µM (inactive) in the assay on NCI-H522; 97.5 µM (inactive) with PC-3.
